Laboratory results published in patent publication US20170334899A1, “AMINO-SUBSTITUTED ISOTHIAZOLES” (Bayer Pharma Aktiengesellschaft, priority 2014, published 2017).
pIC50: −log10 of the molar value.

Columns and labels:
[1] = biological target: T1, catalytic domain of human Bub1 (amino acids 704-1085) (Homo sapiens, UniProt O43683); experiment: Bub1 kinase assay (TR-FRET); type: biochemical; settings: 10 μM ATP, avg, read-out: Bub1 avg (IC50 [mol/l])
T1 construct: catalytic domain of human Bub1 (amino acids 704-1085); His6 (N); made in house; host or cells: insect cells (Hi5)
In short: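 Readout is the 665/620 nm TR-FRET ratio from anti-phosphoserine antibody, Eu-labelled anti-mouse IgG and streptavidin-XL665, scaled between no-enzyme and uninhibited controls. Reaction: 1 μM biotinylated peptide, 10 μM ATP, 60 min, 22 °C, after 15 min compound preincubation with His6-Bub1 (704-1085, insect-expressed, ~200 ng/ml).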

CDK2/CycE = biological target: T2, CDK2/CycE (Homo sapiens, UniProt P24941); experiment: CDK2/CycE kinase assay (TR-FRET); type: biochemical; settings: avg, read-out: CDK2 avg (IC50 [mol/l])
T2 construct: GST; purchased ProQinase GmbH (Freiburg, Germany); host or cells: insect cells (Sf9)
In short: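 Read-out is a TR-FRET 665/620 nm emission ratio from EDTA-stopped reactions detected with anti-pRB(pSer807/pSer811), Eu-labelled anti-mouse IgG and streptavidin-XL665, scaled between no-enzyme and uninhibited wells. Reaction: Sf9-expressed GST-CDK2/GST-CycE, 15 min compound preincubation, 10 μM ATP, 0.75 μM biotin-peptide, 25 min, 22° C., pH 8.0 Tris buffer.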

T1 sequence (O43683 704-1085): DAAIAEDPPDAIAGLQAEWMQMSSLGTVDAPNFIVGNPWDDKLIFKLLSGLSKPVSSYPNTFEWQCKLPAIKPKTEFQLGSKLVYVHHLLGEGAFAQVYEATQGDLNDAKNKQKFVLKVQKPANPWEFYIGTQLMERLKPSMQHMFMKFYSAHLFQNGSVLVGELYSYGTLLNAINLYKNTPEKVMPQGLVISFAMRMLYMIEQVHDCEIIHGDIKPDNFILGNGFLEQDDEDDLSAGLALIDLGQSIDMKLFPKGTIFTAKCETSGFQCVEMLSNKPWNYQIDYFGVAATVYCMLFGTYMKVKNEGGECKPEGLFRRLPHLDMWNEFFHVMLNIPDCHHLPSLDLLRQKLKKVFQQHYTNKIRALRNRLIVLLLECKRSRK

| SMILES | pIC50 [1] | pIC50 (CDK2/CycE) |
| --- | --- | --- |
| Cc1nsc(Nc2cncc(C(F)(F)F)n2)c1C(=O)Nc1ccc(OC2CCNCC2)nc1 [Example 13, 3-Methyl-N-[6-(piperidin-4-yloxy)pyridin-3-yl]-5-{[6-(trifluoromethyl)pyrazin-2-yl]-amino}-1,2-thiazole-4-carboxamide] | ≤ 4.70 | ≤ 4.70 |
| Cc1nsc(Nc2cncc(C(F)(F)F)n2)c1C(=O)Nc1ccc(OC2CCN(CCF)CC2)nc1 [Example 14, N-(6-{[1-(2-Fluoroethyl)piperidin-4-yl]oxy}pyridin-3-yl)-3-methyl-5-{[6-(trifluoro-methyl)pyrazin-2-yl]amino}-1,2-thiazole-4-carboxamide] | ≤ 4.70 | 4.89 |
| Cc1nsc(Nc2cncc(C(F)(F)F)n2)c1C(=O)Nc1ccc(OC2CCN(CC(F)(F)F)CC2)nc1 [Example 16, 3-Methyl-N-(6-{[1-(2,2,2-trifluoroethyl)piperidin-4-yl]oxy}pyridin-3-yl)-5-{[6-(trifluoromethyl)pyrazin-2-yl]amino}-1,2-thiazole-4-carboxamide] | ≤ 4.70 | ≤ 4.70 |
| CC(=O)N1CCC(Oc2ccc(NC(=O)c3c(C)nsc3Nc3cncc(C(F)(F)F)n3)cn2)CC1 [Example 17, N-{6-[(1-Acetylpiperidin-4-yl)oxy]pyridin-3-yl}-3-methyl-5-{[6-(trifluoromethyl)-pyrazin-2-yl]amino}-1,2-thiazole-4-carboxamide] | ≤ 4.70 | ≤ 4.70 |
| Cc1nsc(Nc2cnc3ccccc3n2)c1C(=O)Nc1ccc(OC2CCN(C(=O)OC(C)(C)C)CC2)nc1 [Example 18, tert-Butyl 4-{[5-({[3-methyl-5-(quinoxalin-2-ylamino)-1,2-thiazol-4-yl]carbonyl}-amino)pyridin-2-yl]oxy}piperidine-1-carboxylate] | ≤ 4.70 | ≤ 4.70 |
| Cc1nsc(Nc2cnc3ccccc3n2)c1C(=O)Nc1ccc(OC2CCNCC2)nc1 [Example 19, 3-Methyl-N-[6-(piperidin-4-yloxy)pyridin-3-yl]-5-(quinoxalin-2-ylamino)-1,2-thiazole-4-carboxamide] | ≤ 4.70 | ≤ 4.70 |
| Cc1nsc(Nc2cnc3ccccc3n2)c1C(=O)Nc1ccc(OC2CCN(CC(F)F)CC2)nc1 [Example 20, N-(6-{[1-(2,2-difluoroethyl)piperidin-4-yl]oxy}pyridin-3-yl)-3-methyl-5-(quinoxalin-2-ylamino)-1,2-thiazole-4-carboxamide] | ≤ 4.70 | ≤ 4.70 |
| CCN(CC)CCNC(=O)c1cccc(NC(=O)c2c(C)nsc2Nc2cc(C#N)ccn2)c1 [Example 174, 5-[(4-cyanopyridin-2-yl)amino]-N-(3-{[2-(diethylamino)ethyl]carbamoyl}phenyl)-3-methyl-1,2-thiazole-4-carboxamide] | < 4.70 | < 4.70 |
| Cc1nsc(Nc2cc(C#N)ccn2)c1C(=O)Nc1cccc(C(=O)NC2CC2)c1 [Example 175, 5-[(4-cyanopyridin-2-yl)amino]-N-[3-(cyclopropylcarbamoyl)phenyl]-3-methyl-1,2-thiazole-4-carboxamide] |  | < 4.70 |
| COC(=O)CCc1cccc(NC(=O)c2c(C)nsc2Nc2ccc(C#N)cn2)c1 [Example 176, methyl 3-{3-[({5-[(5-cyanopyridin-2-yl)amino]-3-methyl-1,2-thiazol-4-yl}carbonyl)amino]phenyl}propanoate] | < 4.70 | < 4.70 |
| Cc1nsc(Nc2cc(C#N)ccn2)c1C(=O)Nc1ccc(NC(=O)OC(C)(C)C)cc1 [Example 177, tert-butyl {4-[({5-[(4-cyanopyridin-2-yl)amino]-3-methyl-1,2-thiazol-4-yl}carbonyl)amino]phenyl}carbamate] | < 4.70 | < 4.70 |
| Cc1nsc(Nc2cnc3ccccc3n2)c1C(=O)Nc1cccc(NC(=O)OC(C)(C)C)c1 [Example 178, tert-butyl [3-({[3-methyl-5-(quinoxalin-2-ylamino)-1,2-thiazol-4-yl]carbonyl}amino)-phenyl]carbamate] | < 4.70 | < 4.70 |
| Cc1nsc(Nc2ccc(C#N)cn2)c1C(=O)Nc1cccc(NC(=O)OC(C)(C)C)c1 [Example 179, tert-butyl {3-[({5-[(5-cyanopyridin-2-yl)amino]-3-methyl-1,2-thiazol-4-yl}carbonyl)amino]phenyl}carbamate] | < 4.70 | < 4.70 |
| Cc1nsc(Nc2ccc(C#N)cn2)c1C(=O)Nc1cccc(N)c1 [Example 180, N-(3-aminophenyl)-5-[(5-cyanopyridin-2-yl)amino]-3-methyl-1,2-thiazole-4-carboxamide] | < 4.70 | < 4.70 |
| Cc1nsc(Nc2cnc3ccccc3n2)c1C(=O)Nc1ccc(C(=O)OC(C)(C)C)cc1 [Example 181, tert-butyl 4-({[3-methyl-5-(quinoxalin-2-ylamino)-1,2-thiazol-4-yl]carbonyl}amino)benzoate] | < 4.70 | < 4.70 |
| Cc1nsc(Nc2cc(C#N)ccn2)c1C(=O)Nc1ccc(C(=O)OC(C)(C)C)cc1 [Example 182, tert-butyl 4-[({5-[(4-cyanopyridin-2-yl)amino]-3-methyl-1,2-thiazol-4-yl}carbonyl)amino]benzoate] | < 4.70 | < 4.70 |
| Cc1nsc(Nc2cc(C#N)ccn2)c1C(=O)Nc1cccc(NC(=O)C(C)(C)C)c1 [Example 183, 5-[(4-cyanopyridin-2-yl)amino]-N-{3-[(2,2-dimethylpropanoyl)amino]phenyl}-3-methyl-1,2-thiazole-4-carboxamide] | < 4.70 | < 4.70 |
| Cc1nsc(Nc2cnccn2)c1C(=O)Nc1ccc(C(=O)OC(C)(C)C)cc1 [Example 184, tert-butyl 4-({[3-methyl-5-(pyrazin-2-ylamino)-1,2-thiazol-4-yl]carbonyl}amino)benzoate] | < 4.70 | < 4.70 |
| Cc1nsc(Nc2cnc3ccccc3n2)c1C(=O)Nc1ccc(NC(=O)C(C)(C)C)cc1 [Example 185, N-{4-[(2,2-dimethylpropanoyl)amino]phenyl}-3-methyl-5-(quinoxalin-2-ylamino)-1,2-thiazole-4-carboxamide] | < 4.70 | < 4.70 |
| Cc1nsc(Nc2cnc3ccccc3n2)c1C(=O)Nc1cccc(NC(=O)C(C)(C)C)c1 [Example 186, N-{3-[(2,2-dimethylpropanoyl)amino]phenyl}-3-methyl-5-(quinoxalin-2-ylamino)-1,2-thiazole-4-carboxamide] | < 4.70 | < 4.70 |
| Cc1nsc(Nc2cnc3ccccc3n2)c1C(=O)Nc1ccc(C(=O)O)cc1 [Example 187, 4-({[3-methyl-5-(quinoxalin-2-ylamino)-1,2-thiazol-4-yl]carbonyl}amino)benzoic acid] | 5.42 | < 4.70 |
| Cc1nsc(Nc2cnc3ccccc3n2)c1C(=O)Nc1ccccc1S(C)(=O)=O [Example 188, 3-methyl-N-[2-(methylsulfonyl)phenyl]-5-(quinoxalin-2-ylamino)-1,2-thiazole-4-carboxamide] | < 4.70 | < 4.70 |
| Cc1nsc(Nc2cncc(C(F)(F)F)n2)c1C(=O)Nc1ccc(OC2CCCN(C(=O)OC(C)(C)C)C2)nc1 (centres unmarked) [Example 189, tert-butyl 3-[(5-{[(3-methyl-5-{[6-(trifluoromethyl)pyrazin-2-yl]amino}-1,2-thiazol-4-yl)carbonyl]amino}pyridin-2-yl)oxy]piperidine-1-carboxylate] | < 4.70 | < 4.70 |
| Cc1nsc(Nc2cncc(C(F)(F)F)n2)c1C(=O)Nc1ccc(OCCCNC(=O)OC(C)(C)C)nc1 [Example 190, tert-butyl {3-[(5-{[(3-methyl-5-{[6-(trifluoromethyl)pyrazin-2-yl]amino}-1,2-thiazoL-4-yl)carbonyl]amino}pyridin-2-yl)oxy]propyl}carbamate] | < 4.70 | < 4.70 |
| Cc1nsc(Nc2cncc(C(F)(F)F)n2)c1C(=O)Nc1ccc(OCCNC(=O)OC(C)(C)C)nc1 [Example 191, tert-butyl {2-[(5-{[(3-methyl-5-{[6-(trifluoromethyl)pyrazin-2-yl]amino}-1,2-thiazol-4-yl)carbonyl]amino}pyridin-2-yl)oxy]ethyl}carbamate] | < 4.70 | 4.74 |
| Cc1nsc(Nc2cnc(C(F)(F)F)cn2)c1C(=O)Nc1ccc(OCCNC(=O)OC(C)(C)C)nc1 [Example 192, tert-butyl {2-[(5-{[(3-methyl-5-{[5-(trifluoromethyl)pyrazin-2-yl]amino}-1,2-thiazol-4-yl)carbonyl]amino}pyridin-2-yl)oxy]ethyl}carbamate] | < 4.70 | < 4.70 |
| Cc1nsc(Nc2cnc(C(F)(F)F)cn2)c1C(=O)Nc1cccc(S(C)(=O)=O)c1 [Example 195, 3-methyl-N-[3-(methylsulfonyl)phenyl]-5-{[5-(trifluoromethyl)pyrazin-2-yl]amino}-1,2-thiazole-4-carboxamide] |  | < 4.70 |
| Cc1nsc(Nc2cncc(C(F)(F)F)n2)c1C(=O)Nc1ccc(C(=O)NCCN2CCCC(F)(F)C2)cc1 [Example 214, N-(4-{[2-(3,3-difluoropiperidin-1-yl)ethyl]carbamoyl}phenyl)-3-methyl-5-{[6-(trifluoromethyl)pyrazin-2-yl]amino}-1,2-thiazole-4-carboxamide] | < 4.70 |  |
